{
  "source": "patent US11254965B2",
  "about": "(priority 2015, dated 2022)",
  "key": {"[1]": {"tested_on": "CLso", "assay_type": "cell-based, Candidatus Liberibacter solanacearum", "settings": "48 h treatment, CLso-potato hairy roots"}, "[2]": {"tested_on": "Lso", "assay_type": "cell-based, Candidatus Liberibacter solanacearum", "settings": "100 mg/L penicillin"}},
  "note": "Read-outs that look alike come from different tables or passages of the source.",
  "data": [
    {"molecule": "CC/C=C\\CC1C(=O)CCC1CC(=O)OC", "note": "(stereo not shown) [methyl-JA, methyl jasmonate]", "values": [
      {"measurement": "relative CLso titers versus DMSO control", "setting": "[1]; 10 uM", "result": "suppressed CLso"},
      {"measurement": "relative CLso titers versus DMSO control", "setting": "[1]; 10 uM, listed as methyl-jasmonate", "result": "decreased CLso titers"}
    ]},
    {"molecule": "O=C(O)c1ccccc1O", "note": "[salicylic acid]", "values": [
      {"measurement": "relative CLso titers versus DMSO control", "setting": "[1]; 100 uM", "result": "no significant effect"}
    ]},
    {"molecule": "penicillin", "values": [
      {"measurement": "Lso titer versus Lso colonized hairy roots not exposed", "setting": "[2]; 2 days of exposure", "result": "significantly lower titer of Lso"},
      {"measurement": "Lso titer versus Lso colonized hairy roots not exposed", "setting": "[2]; 7 days of exposure", "result": "significantly lower titer of Lso"},
      {"measurement": "relative CLso titers versus DMSO control", "setting": "[1]; 100 ppm", "result": "significantly suppressed CLso titers"},
      {"measurement": "relative CLso titers versus DMSO control", "setting": "[1]; 100 ppm, listed as Penicillin", "result": "decreased CLso titers"}
    ]}
  ]
}
